Consider ten compounds from the Kinase Knowledgebase extract (Sharma et al. 2016).

The assay has as its target EGFR (human) (UniProt P00533).

Chain of EGFR (human) (P00533 whole entry, looked up): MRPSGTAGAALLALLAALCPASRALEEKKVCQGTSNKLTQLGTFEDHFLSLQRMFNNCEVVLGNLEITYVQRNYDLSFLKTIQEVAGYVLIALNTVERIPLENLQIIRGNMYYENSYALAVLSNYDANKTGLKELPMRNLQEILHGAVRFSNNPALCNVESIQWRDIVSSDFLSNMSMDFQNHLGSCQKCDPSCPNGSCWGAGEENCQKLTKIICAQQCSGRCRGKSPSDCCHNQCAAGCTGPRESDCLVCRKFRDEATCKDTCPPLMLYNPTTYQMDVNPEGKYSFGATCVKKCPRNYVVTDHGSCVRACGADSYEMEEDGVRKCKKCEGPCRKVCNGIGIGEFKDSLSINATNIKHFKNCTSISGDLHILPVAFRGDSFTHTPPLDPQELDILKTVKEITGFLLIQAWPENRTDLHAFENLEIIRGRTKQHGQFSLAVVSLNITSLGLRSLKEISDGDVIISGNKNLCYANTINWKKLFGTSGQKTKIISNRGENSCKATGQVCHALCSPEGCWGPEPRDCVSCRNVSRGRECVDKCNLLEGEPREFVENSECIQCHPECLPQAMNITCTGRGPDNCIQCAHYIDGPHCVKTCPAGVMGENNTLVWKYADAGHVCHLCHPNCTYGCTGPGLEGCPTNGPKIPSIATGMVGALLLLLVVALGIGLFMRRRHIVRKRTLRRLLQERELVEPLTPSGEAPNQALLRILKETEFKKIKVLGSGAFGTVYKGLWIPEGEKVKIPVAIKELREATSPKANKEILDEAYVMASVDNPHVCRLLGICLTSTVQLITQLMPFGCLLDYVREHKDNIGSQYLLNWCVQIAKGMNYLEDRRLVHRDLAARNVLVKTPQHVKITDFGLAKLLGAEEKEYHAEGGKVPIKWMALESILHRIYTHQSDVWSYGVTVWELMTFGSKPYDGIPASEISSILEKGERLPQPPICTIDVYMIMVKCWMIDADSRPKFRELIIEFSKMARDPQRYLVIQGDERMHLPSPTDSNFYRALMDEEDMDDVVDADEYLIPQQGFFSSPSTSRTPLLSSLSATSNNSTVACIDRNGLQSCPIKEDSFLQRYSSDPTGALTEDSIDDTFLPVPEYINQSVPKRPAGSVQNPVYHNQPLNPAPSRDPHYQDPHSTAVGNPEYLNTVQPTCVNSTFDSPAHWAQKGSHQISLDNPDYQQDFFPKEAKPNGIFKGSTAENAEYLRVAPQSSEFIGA

As to `c1ccc2c(CNc3ccnc4[nH]c5ccccc5c34)cccc2c1`, the Ki (as a rule, a measure of affinity in units of concentration, obtained from inhibition or displacement) is 0.36 µM.
In the case of `Clc1ccc(CNc2ccnc3[nH]c4ccccc4c23)cc1` it was 1.04 µM; in that of `Clc1cccc(CNc2ccnc3[nH]c4ccccc4c23)c1`, 0.099 µM.
As to `c1ccc(CNc2ccnc3[nH]c4ccccc4c23)cc1`, the inhibition constant Ki is 0.085 µM.
`COc1ccc(CNc2ccnc3[nH]c4ccccc4c23)cc1`: the Ki came out at 0.45 µM.
In the case of `c1ccc(CCNc2ccnc3[nH]c4ccccc4c23)cc1` it was 1.04 µM; in that of `C[C@H](Nc1ccnc2[nH]c3ccccc3c12)c1ccccc1`, 0.03 µM; in that of `Brc1ccc2[nH]c3nccc(NCc4ccccc4)c3c2c1`, 0.043 µM.
In the case of `C[C@@H](Nc1ccnc2[nH]c3ccccc3c12)c1ccccc1` it was 0.84 µM; in that of `c1cncc(CNc2ccnc3[nH]c4ccccc4c23)c1`, 3.83 µM.
